Results as given in PubChem BioAssay AID1963441 (Molecular Pharmacology Branch, DTP, NCI, 2024).

System: NCI-H1876 complex spheroid growth, % test/control
Assay: Anticancer human tumor NCI-H1876 cell line growth inhibition [Asc];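 also: compound exposure lasted 7 days starting three days after seeding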;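 as to viability, T/C: 100% = DMSO vehicle control wells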
Settings: for IC50: curve of first compound; for viability, T/C: stronger effect = lower value
Procedure, shortened: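 Complex solid-tumor spheroids incorporating human endothelial and mesenchymal stem cells received single agents or combinations over half-log dilution ranges anchored to clinical Cmax.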

[1] = second compound 0.00949 µM, first compound 0.00316 µM
[2] = second compound 0.00949 µM, first compound 0.01 µM
[3] = second compound 0.00949 µM, first compound 0.0316 µM
[4] = second compound 0.00949 µM, first compound 0.1 µM
[5] = second compound 0.03 µM, first compound 0.00316 µM
[6] = second compound 0.03 µM, first compound 0.01 µM
[7] = second compound 0.03 µM, first compound 0.0316 µM
[8] = second compound 0.03 µM, first compound 0.1 µM
[9] = second compound 0.0949 µM, first compound 0.00316 µM
[10] = second compound 0.0949 µM, first compound 0.01 µM
[11] = second compound 0.0949 µM, first compound 0.0316 µM
[12] = second compound 0.0949 µM, first compound 0.1 µM
[13] = second compound 0.3 µM, first compound 0.00316 µM
[14] = second compound 0.3 µM, first compound 0.01 µM
[15] = second compound 0.3 µM, first compound 0.0316 µM
[16] = second compound 0.3 µM, first compound 0.1 µM
[17] = second compound 0.949 µM, first compound 0.00316 µM
[18] = second compound 0.949 µM, first compound 0.01 µM
[19] = second compound 0.949 µM, first compound 0.0316 µM
[20] = second compound 0.949 µM, first compound 0.1 µM
[21] = second compound 3 µM, first compound 0.00316 µM
[22] = second compound 3 µM, first compound 0.01 µM
[23] = second compound 3 µM, first compound 0.0316 µM
[24] = second compound 3 µM, first compound 0.1 µM

COc1c(OCCCN2CCOCC2)ccc2c3n(c(=NC(=O)c4cnc(N)nc4)nc12)CCN3 + CCN1C(C(=O)NC23CCC(C(=O)O)(CC2)CC3)C(c2cccc(Cl)c2F)C2(C(=O)Nc3cc(Cl)ccc32)C12CCCCC2
IC50 (second compound 0.00949 µM): 719 nM | IC50 (second compound 0.03 µM): 741 nM | IC50 (second compound 0.0949 µM): 690 nM | IC50 (second compound 0.3 µM): 718 nM | IC50 (second compound 0.949 µM): 614 nM | IC50 (second compound 3 µM): 543 nM | viability, T/C [1]: 96.8% | viability, T/C [2]: 93.6% | viability, T/C [3]: 101% | viability, T/C [4]: 72.7% | viability, T/C (second compound 0.00949 µM, first compound 0.316 µM): 66.4% | viability, T/C (second compound 0.00949 µM, first compound 1 µM): 44% | viability, T/C [5]: 133% | viability, T/C [6]: 96% | viability, T/C [7]: 94.2% | viability, T/C [8]: 70.6% | viability, T/C (second compound 0.03 µM, first compound 0.316 µM): 59.8% | viability, T/C (second compound 0.03 µM, first compound 1 µM): 45.8% | viability, T/C [9]: 99.3% | viability, T/C [10]: 96.2% | viability, T/C [11]: 90.8% | viability, T/C [12]: 77.5% | viability, T/C (second compound 0.0949 µM, first compound 0.316 µM): 67.3% | viability, T/C (second compound 0.0949 µM, first compound 1 µM): 42.1% | viability, T/C [13]: 96.8% | viability, T/C [14]: 96% | viability, T/C [15]: 93% | viability, T/C [16]: 70.6% | viability, T/C (second compound 0.3 µM, first compound 0.316 µM): 65.9% | viability, T/C (second compound 0.3 µM, first compound 1 µM): 44.1% | viability, T/C [17]: 108% | viability, T/C [18]: 105% | viability, T/C [19]: 92.4% | viability, T/C [20]: 75.4% | viability, T/C (second compound 0.949 µM, first compound 0.316 µM): 58.7% | viability, T/C (second compound 0.949 µM, first compound 1 µM): 43.9% | viability, T/C [21]: 106% | viability, T/C [22]: 103% | viability, T/C [23]: 81.2% | viability, T/C [24]: 80.1% | viability, T/C (second compound 3 µM, first compound 0.316 µM): 64.7% | viability, T/C (second compound 3 µM, first compound 1 µM): 35.7%

NC(=O)C(=Cn1cnc(-c2cc(C(F)(F)F)cc(C(F)(F)F)c2)n1)c1cncnc1 + CCN1C(C(=O)NC23CCC(C(=O)O)(CC2)CC3)C(c2cccc(Cl)c2F)C2(C(=O)Nc3cc(Cl)ccc32)C12CCCCC2
IC50 (second compound 0.00949 µM): > 300 nM | IC50 (second compound 0.03 µM): > 300 nM | IC50 (second compound 0.0949 µM): > 300 nM | IC50 (second compound 0.3 µM): > 300 nM | IC50 (second compound 0.949 µM): > 300 nM | IC50 (second compound 3 µM): > 300 nM | viability, T/C (second compound 0.00949 µM, first compound 0.000949 µM): 104% | viability, T/C (second compound 0.00949 µM, first compound 0.003 µM): 102% | viability, T/C (second compound 0.00949 µM, first compound 0.00949 µM): 115% | viability, T/C (second compound 0.00949 µM, first compound 0.03 µM): 94% | viability, T/C (second compound 0.00949 µM, first compound 0.0949 µM): 100% | viability, T/C (second compound 0.00949 µM, first compound 0.3 µM): 64.8% | viability, T/C (second compound 0.03 µM, first compound 0.000949 µM): 101% | viability, T/C (second compound 0.03 µM, first compound 0.003 µM): 99.3% | viability, T/C (second compound 0.03 µM, first compound 0.00949 µM): 96.6% | viability, T/C (second compound 0.03 µM, first compound 0.03 µM): 101% | viability, T/C (second compound 0.03 µM, first compound 0.0949 µM): 96.2% | viability, T/C (second compound 0.03 µM, first compound 0.3 µM): 63.7% | viability, T/C (second compound 0.0949 µM, first compound 0.000949 µM): 101% | viability, T/C (second compound 0.0949 µM, first compound 0.003 µM): 102% | viability, T/C (second compound 0.0949 µM, first compound 0.00949 µM): 100% | viability, T/C (second compound 0.0949 µM, first compound 0.03 µM): 98.5% | viability, T/C (second compound 0.0949 µM, first compound 0.0949 µM): 102% | viability, T/C (second compound 0.0949 µM, first compound 0.3 µM): 71.2% | viability, T/C (second compound 0.3 µM, first compound 0.000949 µM): 103% | viability, T/C (second compound 0.3 µM, first compound 0.003 µM): 104% | viability, T/C (second compound 0.3 µM, first compound 0.00949 µM): 103% | viability, T/C (second compound 0.3 µM, first compound 0.03 µM): 103% | viability, T/C (second compound 0.3 µM, first compound 0.0949 µM): 105% | viability, T/C (second compound 0.3 µM, first compound 0.3 µM): 69.6% | viability, T/C (second compound 0.949 µM, first compound 0.000949 µM): 124% | viability, T/C (second compound 0.949 µM, first compound 0.003 µM): 104% | viability, T/C (second compound 0.949 µM, first compound 0.00949 µM): 104% | viability, T/C (second compound 0.949 µM, first compound 0.03 µM): 114% | viability, T/C (second compound 0.949 µM, first compound 0.0949 µM): 101% | viability, T/C (second compound 0.949 µM, first compound 0.3 µM): 68.5% | viability, T/C (second compound 3 µM, first compound 0.000949 µM): 109% | viability, T/C (second compound 3 µM, first compound 0.003 µM): 97.4% | viability, T/C (second compound 3 µM, first compound 0.00949 µM): 104% | viability, T/C (second compound 3 µM, first compound 0.03 µM): 94.8% | viability, T/C (second compound 3 µM, first compound 0.0949 µM): 96.1% | viability, T/C (second compound 3 µM, first compound 0.3 µM): 55%

NC1CCC(NC2CC2c2ccccc2)CC1 (stereo unspecified) + CCN1C(C(=O)NC23CCC(C(=O)O)(CC2)CC3)C(c2cccc(Cl)c2F)C2(C(=O)Nc3cc(Cl)ccc32)C12CCCCC2
IC50 (second compound 0.00949 µM): > 100 nM | IC50 (second compound 0.03 µM): > 100 nM | IC50 (second compound 0.0949 µM): > 100 nM | IC50 (second compound 0.3 µM): > 100 nM | IC50 (second compound 0.949 µM): > 100 nM | IC50 (second compound 3 µM): > 100 nM | viability, T/C (second compound 0.00949 µM, first compound 0.000316 µM): 103% | viability, T/C (second compound 0.00949 µM, first compound 0.001 µM): 105% | viability, T/C [1]: 105% | viability, T/C [2]: 113% | viability, T/C [3]: 108% | viability, T/C [4]: 119% | viability, T/C (second compound 0.03 µM, first compound 0.000316 µM): 112% | viability, T/C (second compound 0.03 µM, first compound 0.001 µM): 107% | viability, T/C [5]: 110% | viability, T/C [6]: 117% | viability, T/C [7]: 120% | viability, T/C [8]: 110% | viability, T/C (second compound 0.0949 µM, first compound 0.000316 µM): 106% | viability, T/C (second compound 0.0949 µM, first compound 0.001 µM): 117% | viability, T/C [9]: 113% | viability, T/C [10]: 113% | viability, T/C [11]: 117% | viability, T/C [12]: 112% | viability, T/C (second compound 0.3 µM, first compound 0.000316 µM): 117% | viability, T/C (second compound 0.3 µM, first compound 0.001 µM): 116% | viability, T/C [13]: 123% | viability, T/C [14]: 124% | viability, T/C [15]: 118% | viability, T/C [16]: 108% | viability, T/C (second compound 0.949 µM, first compound 0.000316 µM): 118% | viability, T/C (second compound 0.949 µM, first compound 0.001 µM): 121% | viability, T/C [17]: 134% | viability, T/C [18]: 113% | viability, T/C [19]: 133% | viability, T/C [20]: 116% | viability, T/C (second compound 3 µM, first compound 0.000316 µM): 122% | viability, T/C (second compound 3 µM, first compound 0.001 µM): 112% | viability, T/C [21]: 111% | viability, T/C [22]: 126% | viability, T/C [23]: 125% | viability, T/C [24]: 111%
